Measurements published in patent US8933111B2, “Crystalline form of (2S,4R)-5-biphenyl-4-yl-2-hydroxymethyl-2-methyl-4-[(1H-[1,2,3]triazole-4-carbonyl)-amino]-pentanoic acid 5-methyl-2-oxo-[1,3]dioxol-4-ylmethyl ester” (Theravance Biopharma R&D IP, LLC, priority 2012, dated 2015).

What was measured:
[1] = Thermogravimetric analysis (TGA); type: physicochemical; settings: heating rate of 10° C. from ambient to 220° C., nitrogen purge
Procedure: Thermogravimetric analysis (TGA) measurements were performed using a TA Instruments Model Q-50 module equipped with high resolution capability. Data were collected using TA Instruments Thermal Analyst controller and analyzed using TA Instruments Universal Analysis software. A weighed sample was placed onto a platinum pan and scanned with a heating rate of 10° C. from ambient temperature to 220° C. The balance and furnace chambers were purged with nitrogen flow during use.

[2] = Dynamic moisture sorption (DMS) assessment; type: physicochemical
Procedure: Dynamic moisture sorption (DMS) measurements were performed using a VTI atmospheric microbalance, SGA-100 system (VTI Corp., Hialeah, Fla. 33016). A weighed sample was used and the relative humidity (RH) was set at the ambient value at the start of the analysis. The sample was subjected to an initial drying step (from 45% RH to 5% RH) followed by two cycles of adsorption (5% RH to 90% RH) and desorption (90% RH to 5% RH) experiments. The DMS analysis used a scan rate of 5% RH/step over the full humidity range of 5% (RH) to 90% RH. The DMS run was performed isothermally at 25° C.

SMILES: Cc1oc(=O)oc1COC(=O)[C@](C)(CO)C[C@@H](Cc1ccc(-c2ccccc2)cc1)NC(=O)c1c[nH]nn1 [crystalline compound, (2S,4R)-5-biphenyl-4-yl-2-hydroxymethyl-2-methyl-4-[(1H-[1,2,3]triazole-4-carbonyl)-amino]-pentanoic acid 5-methyl-2-oxo-[1,3]dioxol-4-ylmethyl ester]
- temperature until which the TGA trace shows no weight loss [1]: about 200 °C
- hygroscopicity (DMS profile) ([2]; 5% RH to 90% RH, two adsorption/desorption cycles, 25° C.): non-hygroscopic
- moisture picked up during the adsorption segment ([2]; adsorption from 5% RH to 90% RH, isothermal at 25° C.): less than 0.1 % by weight
- solid form after the DMS experiment (PXRD of post-DMS sample) ([2]; after two moisture sorption-desorption cycles): no change in the form
